Biological target: DDR1 kinase (Homo sapiens, UniProt Q08345)
Assay: Evaluation of DDR1 kinase inhibition (LANCE Ultra TR-FRET kinase assay)
Assay type: biochemical
Design: purchased Carna Biosciences 08-113
Settings: DDR1 protein 0.5 nM, LANCE Ultra ULight-poly GAT substrate, 2 hours at room temperature, duplicate; read-out: DDR-1 IC50

Sequence of DDR1 kinase (Q08345 19-876 isoform Q08345-2 limits assumed): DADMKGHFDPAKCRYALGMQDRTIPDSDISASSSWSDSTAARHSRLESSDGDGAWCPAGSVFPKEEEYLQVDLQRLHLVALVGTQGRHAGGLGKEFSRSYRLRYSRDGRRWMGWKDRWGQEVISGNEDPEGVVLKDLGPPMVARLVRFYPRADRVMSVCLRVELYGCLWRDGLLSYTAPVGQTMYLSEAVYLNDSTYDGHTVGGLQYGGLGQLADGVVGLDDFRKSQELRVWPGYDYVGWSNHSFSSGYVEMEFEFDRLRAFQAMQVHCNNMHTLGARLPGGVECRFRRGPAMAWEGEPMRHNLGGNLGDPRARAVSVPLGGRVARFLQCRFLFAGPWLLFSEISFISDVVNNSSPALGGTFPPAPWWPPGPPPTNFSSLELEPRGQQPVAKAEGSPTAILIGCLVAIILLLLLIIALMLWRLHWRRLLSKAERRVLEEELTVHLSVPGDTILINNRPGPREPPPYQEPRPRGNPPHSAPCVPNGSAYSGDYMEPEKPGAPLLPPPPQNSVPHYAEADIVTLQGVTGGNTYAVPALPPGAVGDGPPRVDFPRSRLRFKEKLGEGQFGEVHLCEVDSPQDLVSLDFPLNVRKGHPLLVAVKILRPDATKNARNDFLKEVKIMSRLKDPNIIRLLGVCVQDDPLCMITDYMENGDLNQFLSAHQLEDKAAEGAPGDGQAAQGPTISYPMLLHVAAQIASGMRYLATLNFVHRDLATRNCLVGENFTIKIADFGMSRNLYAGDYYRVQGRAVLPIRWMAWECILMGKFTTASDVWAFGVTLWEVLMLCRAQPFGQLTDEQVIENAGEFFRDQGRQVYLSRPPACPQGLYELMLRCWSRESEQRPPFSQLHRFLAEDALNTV

IC50 [nM] | Compound
7.1 | CC1(c2nn(CC(=O)N3CCC[C@H]3C(F)(F)F)c3ccccc23)CN(C(=O)c2ccnc(N)c2)C1 [Compound E-6, 2-{3-[1-(2-aminopyridine-4-carbonyl)-3-methylazetidin-3-yl]-1H-indazol-1-yl}-1-[(2S)-2-(trifluoromethyl)pyrrolidin-1-yl]ethan-1-one]
1.9 | Nc1cc(C(=O)N2CC(c3nn(Cc4noc(-c5ccccc5F)n4)c4cccc(F)c34)C2)ccn1 [Compound E-148, 4-[3-(4-fluoro-1-i[5-(2-fluorophenyl)-1,2,4-oxadiazol-3-yl]methyl}-1H-indazol-3-yl)azetidine-1-carbonyllpyridin-2-amine]
59 | Nc1cc(C(=O)N2CC(c3nn(CC(=O)NC4CCC(F)(F)CC4)c4ccccc34)C2)ccn1 [Compound E-235, 2-{3-[1-(2-aminopyridine-4-carbonyl)azetidin-3-yl]-1H-indazol-1-yl}-N-(4,4-difluorocyclohexyl)acetamide]
56 | Nc1nccc(C(=O)N2CC(c3nn(CC(=O)N4CCO[C@@H](C(F)(F)F)C4)c4ccccc34)C2)n1 [Compound E-215, 2-{3-[1-(2-aminopyrimidine-4-carbonyl)azetidin-3-yl]-1H-indazol-1-yl}-1-[(2R)-2-(trifluoromethyl)morpholin-4-yl]ethan-1-one]
4.3 | Nc1nccc(C(=O)N2CC(c3nn(CC(=O)N4CCC[C@H]4C(F)(F)F)c4ccc(F)cc34)C2)n1 [Compound E-241, 2-{3-[1-(2-aminopyrimidine-4-carbonyl)azetidin-3-yl]-5-fluoro-1H-indazol-1-yl}-1-[(2S)-2-(trifluoromethyl)pyrrolidin-1-yl]ethan-1-one]
64 | Cc1cc2c(C3CN(C(=O)c4ccnc(N)c4)C3)nn(Cc3ccc(C(F)(F)F)cc3)c2cn1 [Compound E-168, 4-[3-(5-methyl-1-{[4-(trifluoromethyl)phenyl]methyl]-1H-pyrazolo[3,4-c]pyridin-3-yl)azetidine-1-carbonyl]pyridin-2-amine]
5 | Nc1nccc(C(=O)N2CC(c3nn(CC(=O)N4CCC[C@H]4C(F)(F)F)c4cc(F)ccc34)C2)n1 [Compound E-286, 2-{3-[1-(2-aminopyrimidine-4-carbonyl)azetidin-3-yl]-6-fluoro-1H-indazol-1-yl}-1-[(2S)-2-(trifluoromethyl)pyrrolidin-1-yl]ethan-1-one]
52 | CN(CC(F)(F)F)C(=O)Cn1nc(C2CN(C(=O)c3ccnc(N)n3)C2)c2cc(F)c(F)cc21 [Compound E-282, 2-{3-[1-(2-aminopyrimidine-4-carbonyl)azetidin-3-yl]-5,6-difluoro-1H-indazol-1-yl}-N-methyl-N-(2,2,2-trifluoroethyl)acetamide]
74 | Nc1cc(C(=O)N2CC(c3nn(CC(=O)N4CC5CCC(C4)O5)c4ccccc34)C2)c(F)cn1 [Compound E-258, 2-{3-[1-(2-amino-5-fluoropyridine-4-carbonyl)azetidin-3-yl]-1H-indazol-1-yll-1-18-oxa-3-azabicyclo[3.2.1}octan-3-yl]ethan-1-one]
7.9 | O=C(c1ccncc1F)N1CC(c2nn(CC(=O)N3CCC[C@H]3C(F)(F)F)c3cc(F)cc(F)c23)C1 [Compound E-142, 2-{4,6-difluoro-3-[1-(3-fluoropyridine-4-carbonyl)azetidin-3-yl]-1H-indazol-1-yl]-1-[(2S)-2-(trifluoromethyl)pyrrolidin-1-yl]ethan-1-one]
140 | Nc1cc(C(=O)N2CC=C(c3nn(CC(=O)N4CCC[C@H]4C(F)(F)F)c4ccccc34)CC2)c(F)cn1 [Compound E-47, 2-{3-[1-(2-amino-5-fluoropyridine-4-carbonyl)-1,2,3,6-tetrahydropyridin-4-yl]-1H-indazol-1-yl}-1-[(2S)-2-(trifluoromethyl)pyrrolidin-1-yl]ethan-1-one]
140 | Cc1nc(N)sc1C(=O)N1CC(c2nn(CC(=O)N3CCC[C@H]3C(F)(F)F)c3cccnc23)C1 [Compound E-122]
4.4 | CC1(C)CCCN1C(=O)Cn1nc(C2CN(C(=O)c3ccnc(N)c3)C2)c2ccccc21 [Compound E-221, 2-{3-[1-(2-aminopyridine-4-carbonyl)azetidin-3-yl]-1H-indazol-1-yl}-1-(2,2-dimethylpyrrolidin-1-yl)ethan-1-one]
2.1 | CC[C@@H]1CCCN1C(=O)Cn1nc(C2CN(C(=O)c3ccnc(N)c3)C2)c2ccccc21 [Compound E-222, 2-{3-[1-(2-aminopyridine-4-carbonyl)azetidin-3-yl)-1H-indazol-1-yl}-1-[(2R)-2-ethylpyrrolidin-1-yl]ethan-1-one]
180 | Nc1cc(C(=O)N2CC(c3nn(Cc4nnc(C(F)(F)F)o4)c4cccc(F)c34)C2)ccn1 [Compound E-128, 4-[3-(4-fluoro-1-{[5-(trifluoromethyl)-1,3,4-oxadiazol-2-yl]methyl}-1H-indazol-3-yl)azetidine-1-carbonyl}pyridin-2-amine]
12 | C[C@H]1COC[C@H](C)N1C(=O)Cn1nc(C2CN(C(=O)c3cc(N)ncc3F)C2)c2c(F)cc(F)cc21 [Compound E-182, 2-{3-[1-(2-amino-5-fluoropyridine-4-carbonyl)azetidin-3-yl]-4,6-difluoro-1H-indazol-1-yl}-1-[(3S,5S)-3,5-dimethylmorpholin-4-yl]ethan-1-one]

IC50 [nM] | Compound
2.3 | Cc1ccc2c(c1)c(C1CN(C(=O)c3ccnc(N)n3)C1)nn2CC(=O)N1CCC[C@H]1C(F)(F)F [Compound E-292, 2-{3-[1-(2-aminopyrimidine-4-carbonyl)azetidin-3-yl]-5-methyl-1H-indazol-1-yl]-1-[(2S)-2-(trifluoromethyl)pyrrolidin-1-yl]ethan-1-one]
2.6 | COc1ccc2c(c1)c(C1CN(C(=O)c3cc(N)ncc3F)C1)nn2CC(=O)N1CCC[C@H]1C(F)(F)F [Compound E-291, 2-(3-(1-(2-amino-5-fluoropyridine-4-carbonyl)azetidin-3-yl]-5-methoxy-1H-indazol-1-yl}·1-[(2S)-2-(trifluoromethyl)pyrrolidin-1-yl]ethan-1-one]
500 | Nc1cc(C(=O)N2CC(c3nn(CC(=O)NC4CCOCC4)c4ccccc34)C2)ccn1 [Compound E-233, 2-{3-[1-(2-aminopyridine-4-carbonyl)azetidin-3-yl]-1H-indazol-1-yl}-N-(oxan-4-yl)acetamide]
1.6 | Nc1nccc(C(=O)N2CC(c3nn(CC(=O)N4CCC[C@H]4C(F)(F)F)c4ccc(Cl)cc34)C2)n1 [Compound E-290, 2-{3-[1-(2-aminopyrimidine-4-carbonyl)azetidin-3-yl]-5-chloro-1H-indazol-1-yl}-1-[(28)-2-(trifluoromethyl)pyrrolidin-1-yl]ethan-1-one]
7.9 | CC(C)(NC(=O)Cn1nc(C2CN(C(=O)c3ccnc(N)c3)C2)c2ccccc21)C1CC1 [Compound E-234, 2-{3-[1-(2-aminopyridine-4-carbonyl)azetidin-3-yl]-1H-indazol-1-yl}-N-(2-cyclopropylpropan-2-yl)acetamide]
23 | COc1cnccc1C(=O)N1CC(c2nn(CC(=O)N3CCC[C@H]3C(F)(F)F)c3cc(F)cc(F)c23)C1 [Compound E-133, 2-{4,6-difluoro-3-[1-(3-methoxypyridine-4-carbonyl)azetidin-3-yl)-1H-indazol-1-yl}-1-[(28)-2-(trifluoromethyl)pyrrolidin-1-yl]ethan-1-one]
1.3 | Nc1cc(C(=O)N2CC(c3nn(CC(=O)N4CCc5ccc(C6CC6)cc54)c4cc(F)cc(F)c34)C2)ccn1 [Compound E-172]
9.2 | Cc1c(C(=O)N2CC(c3nn(CC(=O)N4CCC[C@H]4COC(F)(F)F)c4cncc(F)c34)C2)ccnc1N [Compound E-44, 2-{3-[1-(2-amino-3-methylpyridine-4-carbonyl)azetidin-3-yl]-4-fluoro-1H-pyrazolo[3,4-c]pyridin-1-yl]-1-[(2S)-2-[(trifluoromethoxy)methyl]pyrrolidin-1-yl]ethan-1-one di-p-toluenesulfonate]
160 | O=C(Cn1nc(C2CN(C(=O)c3ccnc(NC4COC4)c3)C2)c2c(F)cc(F)cc21)NCC(F)(F)F [Compound E-32, 2-[4,6-difluoro-3-(1-{2-[(oxetan-3-yl)amino]pyridine-4-carbonyl}azetidin-3-yl)-1H-indazol-1-yl]-N-(2,2,2-trifluoroethyl)acetamide]
54 | CN(CC(F)(F)F)C(=O)Cn1nc(C2CN(C(=O)c3ccnc(N)n3)C2)c2ccc(F)cc21 [Compound E-284, 2-{3-[1-(2-aminopyrimidine-4-carbonyl)azetidin-3-yl]-6-fluoro-1H-indazol-1-yl}-N-methyl-N-(2,2,2-trifluoroethyl)acetamide]
14 | Nc1cc(C(=O)N2CCC(c3nn(Cc4ccc(C(F)(F)F)cn4)c4cccc(F)c34)CC2)ccn1 [Compound E-9, 4-[4-(4-fluoro-1-{[5-(trifluoromethy)pyridin-2-yl]methyl}-1H-indazol-3-yl)piperidine-1-carbonyl]pyridin-2-amine]
160 | Nc1cc(C(=O)N2CC(c3nn(Cc4ccc(C(F)(F)F)cc4)c4cncc(F)c34)C2)ccn1 [Compound E-151, 4-[3-(4-fluoro-1-{[4-(trifluromethyl)phenyl]methyl}-1H-pyrazolo[3,4-c]pyridin-3-yl)azetidine-1-carbonyl]pyridin-2-amine]
5.2 | CC(C)(C)NC(=O)Cn1nc(C2CN(C(=O)c3cc(N)ncc3F)C2)c2ccccc21 [Compound E-199, 2-{3-[1-(2-amino-5-fluoropyridine-4-carbonyl)azetidin-3-yl]-1H-indazol-1-yl}-N-tert-butylacetamide]
4 | CC1(c2nn(CC(=O)N3CCC[C@H]3C(F)(F)F)c3ccccc23)CN(C(=O)c2cc(N)ncc2F)C1 [Compound E-271, 2-{3-[1-(2-amino-5-fluoropyridine-4-carbonyl)-3-methylazetidin-3-yl]-1H-indazol-1-yl}-1-[(2S)-2-(trifluoromethyl)pyrrolidin-1-yl]ethan-1-one]
1.3 | Nc1cc(C(=O)N2CC(c3nn(CC(=O)N4CCO[C@@H](C(F)(F)F)C4)c4ccccc34)C2)c(F)cn1 [Compound E-192, 2-{3-[1-(2-amino-5-fluoropyridine-4-carbonyl)azetidin-3-yl]-1H-indazol-1-yl}-1-[(2R)-2-(trifluoromethyl)morpholin-4-yl]ethan-1-one]

From patent publication EP4624465A1, “COMPOUND SERVING AS DDR1 KINASE INHIBITOR, AND MEDICINE” (Nippon Shinyaku Co., Ltd., priority 2022, dated 2024)
